{
  "source": "patent US7691874B2",
  "about": "“Neuroprotective properties of dextrorotatory morphinans” (priority 2004, dated 2010)",
  "key": {"C57 BL/6 mice [1]": {"tested_on": "C57 BL/6 mice", "test": "Locomotor activity and locomotor pattern following repeated administration of morphinans or PCP", "assay_type": "in vivo"}, "C57 BL/6 mice [2]": {"tested_on": "C57 BL/6 mice", "test": "Conditioned place preference (psychological dependence) following repeated administration of morphinans or PCP", "assay_type": "in vivo", "details": "20 or 40 mg/kg i.p. (PCP 2.5 or 5 mg/kg); vs saline", "protocol": "On day 14, the guillotine doors were raised. […] Data were analyzed between 0900 and 1700 hr."}, "MA-treated mice [3]": {"tested_on": "MA-treated mice", "test": "MA-induced behavioural sensitization", "details": "morphinan 20 mg/kg i.p., last 3 days of wash-out (Ex. 3.12)", "protocol": "Morphinans (20 mg/kg, i.p.) were administered last 3 days of wash-out period."}, "σ1 receptors": {"molecular_target": "σ1 receptors (Homo sapiens, UniProt Q99720)", "sequence (Q99720 whole entry)": "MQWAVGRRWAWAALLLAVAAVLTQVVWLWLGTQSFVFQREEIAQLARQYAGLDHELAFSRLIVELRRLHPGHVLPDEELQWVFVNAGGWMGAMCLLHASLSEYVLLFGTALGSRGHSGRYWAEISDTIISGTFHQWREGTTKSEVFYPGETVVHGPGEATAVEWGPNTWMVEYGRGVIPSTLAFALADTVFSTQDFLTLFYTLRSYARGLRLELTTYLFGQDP", "details": "cited from earlier work"}, "MA-treated mice [4]": {"tested_on": "MA-treated mice", "test": "Nigral TH-IR in MA-treated mice", "details": "24 mg/kg i.p."}, "MPTP-treated mice [5]": {"tested_on": "MPTP-treated mice", "test": "Striatal dopamine and metabolites (HPLC-EC) in MPTP-treated mice", "details": "for Concentration DA in the striatum: mean ± S.E.M., 8 animals"}, "MPTP-treated mice [6]": {"tested_on": "MPTP-treated mice", "test": "Hypokinesia (reduction in locomotor activity) induced by MPTP", "assay_type": "in vivo", "details": "12 or 24 mg/kg i.p. 30 min before MPTP (20 mg/kg/day x 7), last three days"}, "cocaine-treated mice [7]": {"tested_on": "cocaine-treated mice", "test": "Cocaine-induced Fos-related antigen-immunoreactivity (FRA-IR) in the striatum", "details": "cocaine 5 mg/kg; morphinan 20 mg/kg i.p."}, "MA-treated mice [8]": {"tested_on": "MA-treated mice", "test": "Striatal dopamine and metabolites in MA-treated mice", "assay_type": "in vivo", "details": "for Concentration DA in the striatum: 3 days after final MA", "excerpt": "Mice were sacrificed at 3 days after final MA injection."}, "MA-treated mice [9]": {"tested_on": "MA-treated mice", "test": "MA-induced hyperlocomotion", "assay_type": "in vivo", "details": "morphinan 20 mg/kg i.p. 30 min before MA 1 mg/kg i.p./day x 7", "protocol": "FIGS. 39A-39D show effect of morphinans on the MA-induced hyperactivity in the mice. Each morphinan (20 mg/kg, i.p.) was administered 30 minutes prior to MA (1 mg/kg, i.p.). All treatments were performed for 7 days."}, "[10]": {"tested_on": "kainate or maximal electric shock", "details": "kainate (24) or maximal electric shock (27); cited from earlier work"}, "MA-treated mice [11]": {"tested_on": "MA-treated mice", "test": "Methamphetamine (MA)-induced hyperthermia", "assay_type": "in vivo", "details": "24 mg/kg; MA 7.5 mg/kg i.p. x 4 at 2-h intervals", "protocol": "Rectal temperature was recorded at 40 min after each MA treatment. […] Mice were sacrificed at 3 days after final MA injection.\nFIGS. 10A-10B show effect of morphinans on the methamphetamine (MA)-induced hyperthermia. Mice received i.p. injections of MA (four injections of 7.5 mg/kg each) at 2-h intervals under the ambient temperature of 22.0±0.5° C. Temperatures were recorded at 40 min after each MA treatment (Arrow=MA injection)."}, "[12]": {"tested_on": "NMDA receptor associated PCP sites", "details": "cited from earlier work"}, "MA-treated mice [13]": {"tested_on": "MA-treated mice", "test": "Hypokinesia induced by MA", "assay_type": "in vivo", "details": "12 and 24 mg/kg; 3 days after final MA"}, "LPS-treated mice [14]": {"tested_on": "LPS-treated mice", "test": "Striatal dopamine and metabolites in LPS-treated mice", "assay_type": "in vivo", "details": "for Concentration DA in the striatum: 3 weeks after LPS", "excerpt": "Control animals received striatal injection with PBS.\nMice were sacrificed at 3 weeks after LPS treatment."}, "LPS-treated mice [15]": {"tested_on": "LPS-treated mice", "test": "Hypokinesia induced by intrastriatal LPS", "details": "12 or 24 mg/kg, twice before bilateral intrastriatal LPS"}, "MA-treated mice [16]": {"tested_on": "MA-treated mice", "test": "MA-induced FRA-IR in the striatum", "details": "morphinan 20 mg/kg i.p.; MA 1 mg/kg i.p./day x 7"}, "cocaine-treated mice [17]": {"tested_on": "cocaine-treated mice", "test": "Cocaine-induced hyperlocomotion", "assay_type": "in vivo", "protocol": "FIGS. 34A-34B show effect of morphinans on the cocaine-induced hyperactivity in the mice. Morphinans (15 and 30 mg/kg, i.p.) were administered 30 minutes prior to cocaine (5 and 20 mg/kg, i.p.). Central activity means relatively non-specific locomotor activity in the center of the box. Marginal activity means circling behaviors. All treatments were performed for 7 days.\nFIGS. 35A-35D show effect of dimemorfan (DF) on cocaine-induced hyperactivity in the mice. DF (20 mg/kg, i.p.) was administered 30 minutes prior to cocaine (5 and 20 mg/kg, i.p.). All treatments were performed for 7 days."}},
  "note": "Marks after values point to notes of the source that are not given here.",
  "data": [
    {"compound": "C=CCOc1ccc2c(c1)[C@@]13CCCC[C@H]1[C@@H](C2)N(C)CC3", "note": "[AM, 3-allyloxy-17-methylmorphinan]", "values": [
      {"measurement": "locomotor pattern (tracings)", "setting": "C57 BL/6 mice [1]; 40 mg/kg i.p. (PCP 5 mg/kg), FIG. 3", "value": "did not produce significant marginal activity"},
      {"measurement": "marginal activity (circling behaviour; absolute turn angular)", "setting": "C57 BL/6 mice [1]; 20 or 40 mg/kg i.p./day x 7 (PCP 2.5 or 5 mg/kg), 3-min period, vs saline", "value": "did not significantly affect marginal activity"},
      {"measurement": "locomotor activity (total distance moved)", "setting": "C57 BL/6 mice [1]; 20 or 40 mg/kg i.p./day x 7 days, 30 min after final treatment, vs saline", "value": "appeared to increase locomotor activity slightly"},
      {"measurement": "conditioned place preference (CPP)", "setting": "C57 BL/6 mice [2]", "value": "almost no CPP effects"},
      {"measurement": "effect on MA-induced behavioural sensitization", "setting": "MA-treated mice [3]", "value": "significantly reduced"},
      {"measurement": "affinity for σ1 receptors", "setting": "σ1 receptors", "value": "high affinity ligands"},
      {"measurement": "effect on MA-induced decrease in nigral TH-positive cells", "setting": "MA-treated mice [4]", "value": "significantly attenuated the decrease in TH-positive cells"},
      {"measurement": "effect on MPTP-induced reductions in striatal DA, DOPAC and HVA", "setting": "MPTP-treated mice [5]; 24 mg/kg pretreatment", "value": "did not alter reductions in DA, DOPAC and HVA"},
      {"measurement": "Concentration DOPAC in the striatum", "setting": "MPTP-treated mice [5]; morphinan 12 (mg/kg) + MPTP", "value": "54 ± 6", "unit": "ng/100 mg wet tissue"},
      {"measurement": "Concentration HVA in the striatum", "setting": "MPTP-treated mice [5]; morphinan 12 (mg/kg) + MPTP", "value": "69 ± 5", "unit": "ng/100 mg wet tissue"},
      {"measurement": "Concentration DA in the striatum", "setting": "MPTP-treated mice [5]; morphinan 12 (mg/kg) + MPTP", "value": "468 ± 52", "unit": "ng/100 mg wet tissue"},
      {"measurement": "Concentration DOPAC in the striatum", "setting": "MPTP-treated mice [5]; morphinan 24 (mg/kg) + MPTP", "value": "66 ± 8", "unit": "ng/100 mg wet tissue"},
      {"measurement": "Concentration HVA in the striatum", "setting": "MPTP-treated mice [5]; morphinan 24 (mg/kg) + MPTP", "value": "78 ± 7", "unit": "ng/100 mg wet tissue"},
      {"measurement": "Concentration DA in the striatum", "setting": "MPTP-treated mice [5]; morphinan 24 (mg/kg) + MPTP", "value": "539 ± 64", "unit": "ng/100 mg wet tissue"},
      {"measurement": "effect on MPTP-induced reduction in locomotor activity", "setting": "MPTP-treated mice [6]", "value": "neither AM nor DF affected significantly the locomotor hypoactivity"},
      {"measurement": "effect on cocaine-induced FRA-IR in the striatum", "setting": "cocaine-treated mice [7]", "value": "apparently attenuated"},
      {"measurement": "effect on MA-induced reductions in striatal DA, DOPAC and HVA", "setting": "MA-treated mice [8]; 24 mg/kg pretreatment", "value": "significantly protected"},
      {"measurement": "Concentration DOPAC in the striatum", "setting": "MA-treated mice [8]; morphinan 12 (mg/kg) + MA", "value": "89 ± 9", "unit": "ng/100 mg wet tissue"},
      {"measurement": "Concentration HVA in the striatum", "setting": "MA-treated mice [8]; morphinan 12 (mg/kg) + MA", "value": "79 ± 9", "unit": "ng/100 mg wet tissue"},
      {"measurement": "Concentration DA in the striatum", "setting": "MA-treated mice [8]; morphinan 12 (mg/kg) + MA, mean ± S.E.M., 8 animals", "value": "601 ± 62", "unit": "ng/100 mg wet tissue"},
      {"measurement": "Concentration DOPAC in the striatum", "setting": "MA-treated mice [8]; morphinan 24 (mg/kg) + MA", "value": "96 ± 10^b ng/100 mg wet tissue"},
      {"measurement": "Concentration HVA in the striatum", "setting": "MA-treated mice [8]; morphinan 24 (mg/kg) + MA", "value": "92 ± 10^b ng/100 mg wet tissue"},
      {"measurement": "Concentration DA in the striatum", "setting": "MA-treated mice [8]; morphinan 24 (mg/kg) + MA", "value": "749 ± 64^b ng/100 mg wet tissue"},
      {"measurement": "effect on MA-induced hyperlocomotion", "setting": "MA-treated mice [9]", "value": "consistently effective in attenuating hyperlocomotion induced by MA"},
      {"measurement": "anticonvulsant effect", "setting": "[10]", "value": "exhibited anticonvulsant effects"},
      {"measurement": "effect on MA-induced hyperthermia (rectal temperature)", "setting": "MA-treated mice [11]", "value": "attenuated by all morphinans used in this study"},
      {"measurement": "affinity for NMDA receptor associated PCP sites", "setting": "[12]", "value": "very low affinities"},
      {"measurement": "effect on MA-induced reduction in locomotor activity", "setting": "MA-treated mice [13]", "value": "significantly prevented MA-induced reduction in locomotor activity"},
      {"measurement": "effect on LPS-induced reductions in striatal DA, DOPAC and HVA", "setting": "LPS-treated mice [14]; 24 mg/kg pretreatment", "value": "did not alter LPS-induced reductions in DA, DOPAC and HVA levels"},
      {"measurement": "Concentration DOPAC in the striatum", "setting": "LPS-treated mice [14]; morphinan 12 (mg/kg) + LPS", "value": "64 ± 8", "unit": "ng/100 mg wet tissue"},
      {"measurement": "Concentration HVA in the striatum", "setting": "LPS-treated mice [14]; morphinan 12 (mg/kg) + LPS", "value": "75 ± 6", "unit": "ng/100 mg wet tissue"},
      {"measurement": "Concentration DA in the striatum", "setting": "LPS-treated mice [14]; morphinan 12 (mg/kg) + LPS, mean ± S.E.M., 8 animals", "value": "454 ± 55", "unit": "ng/100 mg wet tissue"},
      {"measurement": "Concentration DOPAC in the striatum", "setting": "LPS-treated mice [14]; morphinan 24 (mg/kg) + LPS", "value": "66 ± 7", "unit": "ng/100 mg wet tissue"},
      {"measurement": "Concentration HVA in the striatum", "setting": "LPS-treated mice [14]; morphinan 24 (mg/kg) + LPS", "value": "70 ± 8", "unit": "ng/100 mg wet tissue"},
      {"measurement": "Concentration DA in the striatum", "setting": "LPS-treated mice [14]; morphinan 24 (mg/kg) + LPS", "value": "452 ± 49", "unit": "ng/100 mg wet tissue"},
      {"measurement": "effect on LPS-induced decrease in locomotor activity", "setting": "LPS-treated mice [15]", "value": "neither AM nor DF were effective in attenuating locomotor hypoactivity"},
      {"measurement": "effect on MA-induced FRA-IR in the striatum", "setting": "MA-treated mice [16]", "value": "apparently attenuated"},
      {"measurement": "effect on locomotor activity induced by low dose of cocaine", "setting": "cocaine-treated mice [17]; cocaine 5 mg/kg i.p. x 7 days, morphinan 15 or 30 mg/kg (DF 20 mg/kg) i.p.", "value": "consistently attenuated locomotor activity induced by a low dose of cocaine"},
      {"measurement": "effect on hyperactivity induced by high dose of cocaine", "setting": "cocaine-treated mice [17]; cocaine 20 mg/kg i.p. x 7 days, morphinan 15 or 30 mg/kg i.p. 30 min before", "value": "not uniform"}
    ]}
  ]
}
